The structures appear in SMILES notation.

Consider three molecules from US20070105874A1, “Anti-Tumor Methods Using Multi Drug Resistance Independent Synthetic HSP90 Inhibitors” (Conforma Therapeutics Corporation, priority 2005, published 2007).

Data set [1] relates to H295R adrenal cortical carcinoma cells. Description: MTS cytotoxicity assay in H295R adrenal cortical carcinoma cells. Conditions: 5 days. (Tetrazolium dyes change colour on reduction, which living cells bring about.)
Experimental: H295R cells were plated in 96-well plate at low confluence and were analyzed for IC50 as described in FIG. 2 with indicated compounds.
(§1) MTS assays measure the cytotoxicity of the compounds. […] Cells were seeded in 96 well plates at 2000 cells/well and allowed to adhere overnight in Dulbecco's modified Eagle's medium supplemented with 10% fetal bovine serum. The final culture volume was 100 μl. Viable cell number was determined by using the Celltiter 96 AQueous Non-radioactive Cell Proliferation Assay (Promega, Madison Wis.). The MTS/PMS (phenazine methosulfate) solution was mixed at a ratio of 20:1, and 20 μL was added per well to 100 μl of culture medium. After 2-4 hours, the formation of the formazan product was measured at 490 nm absorbance using a multiwell plate spectrophotometer. Background was determined by measuring the Abs 490 nm of cell culture medium and MTS-PMS in the absence of cells and was subtracted from all values. Percent viable cells was calculated as follows: % viable cells=(Abs at 490 nm treated cells/Abs at 490 nm untreated cells)×100
Data set [2] relates to P-gp over-expressing MES SA Dx5 and NCI/ADR-Res cells. Description: MTS cytotoxicity assay in P-gp over-expressing versus non-expressing cell lines. It is filed as cell-based.
Experimental: The cell lines were plated in 96-well plate at 10-20% confluence and treated with increasing concentrations of indicated drug from 1 nM to 10 mM. 5 days later, the surviving fraction was estimated by MTS assay.
as §1
In data set [3] the target is T1, P-gp (Homo sapiens, UniProt P08183).
T1 construct: adrenocortical carcinoma, a tumor that naturally expresses P-gp; endogenous in cells; host or cells: H295R adrenal cortical carcinoma cells
The experiment in a line: Rhodamine 123 retention (P-gp efflux inhibition) in H295R cells. It counts as cell-based. The note with it: rhodamine 123, concentrations up to 10 mM.
Experimental: Rhodamine 123 level within cells was measured by flow cytometry as described in FIG. 9.

For `CO[C@H]1/C=C\C=C(/C)C(=O)NC2=CC(=O)C(NCCN(C)C)=C(C[C@@H](C)C[C@H](OC)[C@H](O)[C@@H](C)/C=C(\C)[C@@H]1OC(N)=O)C2=O` [Compound 17-DMAG, (4E,6Z,8S,9S,10E,12S,13R,14S,16R)-19-(2-(dimethylamino)ethylamino)-13-hydroxy-8,14-dimethoxy-4,10,12,16-tetramethyl-3,20,22-trioxo-2-azabicyclo[16.3.1]docosa-1(21),4,6,10,18-pentaen-9-yl carbamate], the “cytotoxic potency in adrenal cortical carcinoma” value in data set [1] was “weak”. In addition, the P-gp substrate status result in data set [2] (cytotoxicity in cell lines expressing P-gp or MRP to various extent) is “P-gp substrates”.
Turning to `COc1c(C)cnc(Cn2cc(C#CCCC(N)=O)c3c(Cl)nc(N)nc32)c1C` [Compound XI, 5-(2-amino-4-chloro-7-((4-methoxy-3,5-dimethylpyridin-2-yl)methyl)-7H-pyrrolo[2,3-d]pyrimidin-5-yl)pent-4-ynamide], the “increase of IC50 in P-gp+++ lines” value in data set [2] (P-gp+++ lines) was 10-20 fold.
For the molecule `C=CCNC1=C2CC(C)CC(OC)C(O)C(C)/C=C(\C)C(OC(N)=O)C(OC)/C=C\C=C(/C)C(=O)NC(=CC1=O)C2=O` (centres unmarked) [Compound 17-AAG, (4E,6Z,10E)-19-(allylamino)-13-hydroxy-8,14-dimethoxy-4,10,12,16-tetramethyl-3,20,22-trioxo-2-azabicyclo[16.3.1]docosa-1(21),4,6,10,18-pentaen-9-yl carbamate], in data set [1], the “cytotoxic potency in adrenal cortical carcinoma” value is given as “more potent than CsA”. Further, in data set [3], the “inhibitory effect on P-gp efflux activity” value is “No inhibitory effect”.
